Assay results reported in US7645736B2, “Integrin inhibitors for the treatment of eye diseases” (Merck Patent GmbH, priority 2004, dated 2010).

Test system: bFGF-stimulated corneal angiogenesis
Experiment: rabbit corneal micropocket model, single intravitreal injection
Assay type: in vivo
Details: single (day 0) intravitreal, 100 μL, drug = 2 mg/eye; for inhibition [%] of neovascularisation area: vs saline control
Experimental: (1996). In this model angiogenesis is stimulated by implantation of Hydron pellets containing an angiogenesis stimulating cytokine like, for example, fibroblast growth factor (FGF) or vascular endothelial growth factor (VEGF) into the cornea. After implantation the active compound to be tested is administered by paralimbal intravitreal injection. Effect on neovascularisation is measured after predetermined time intervals by visual examination using a microscope, photographing and computer-assisted quantification of photographs.
The effect of intravitreal application of an αvβ3 and/or αvβ5 inhibitor was examined in rabbit corneal micropocket model as described by Shaffer R. W. (see above). As an example for an αvβ3 and/or αvβ5 inhibitor 2-(2,2-dimethylpropyloxycarboxamido)-3{3,4-dihydro-2-[N-(2-imidazoly)-carbamoylethyl]-2H-1,4-benzoxazin-3-on-6-yl}propionic acid was used in the experiment. For induction of angiogenesis Hydron pellets containing basic fibroblast growth factor (bFGF) were used. Preparation of bFGF containing implants was performed by casting Hydron [poly(hydroxyethyl)methacrylate] in specially prepared Teflon pegs that have a 2.5 mm core drilled into their surfaces. Approximately 12 μl of casting material was placed into each peg and polymerized overnight in a sterile hood, then sterilized by ultraviolet irradiation.
The experiment consisted of 10 animals; in each eye of the animals one individual pellet was implanted into a surgically created “pocket” in the mid stroma of the rabbit cornea. The surgical procedure was done under sterile technique using a Moeller-Wedel Microflex operating microscope (Haag-Streit Company, Germany) equipped with a beamsplitter and camera for photographically recording individual comeas. A 69 Beaver blade was used to create a 3 mm by 5 mm “pocket” to a depth of half the comeal thickness. The stroma was dissected peripherally using an spatula and the pellet implanted with its peripheral margin 2 mm from limbus. […] For comparison the same procedure was performed in the other 5 animals using saline only. Following implantation the eyes Were photographed and the area of neovascularisation measured after predetermined intervals.

CC(C)(C)COC(=O)NC(Cc1ccc2c(c1)NC(=O)C(CCC(=O)Nc1ncc[nH]1)O2)C(=O)O (centres unmarked) [Drug, 2-(2,2-dimethylpropyloxycarboxamido)-3-{3,4-dihydro-2-[N-(2-imidazolyl)-carbamoylethyl]-2H-1,4-benzoxazin-3-on-6-yl}propionic acid]
mean area [mm^2] of neovascularisation (5 days post implantation): 1.71 mm^2 | inhibition [%] of neovascularisation area (5 days post implantation): 56.3% | mean area [mm^2] of neovascularisation (7 days post implantation): 4.65 mm^2 | inhibition [%] of neovascularisation area (7 days post implantation): 13.4% | mean area [mm^2] of neovascularisation (10 days post implantation): 5.10 mm^2 | inhibition [%] of neovascularisation area (10 days post implantation): 45.8% | mean area [mm^2] of neovascularisation (14 days post implantation): 9.94 mm^2 | inhibition [%] of neovascularisation area (14 days post implantation): 40.0%
